The source made the active and inactive calls. The calls are words filed in the database; no cut-off is given here.
Test: Depletion of lysosomal cystine in cystinotic fibroblasts GM00008 at 50 uM after 72 hrs
Assay type: functional, cell-based
Settings: Fibroblast

Structure (SMILES)	Activity
CCCCCCCCCC(=O)NCCSSCCNC(=O)CCCCCCCCC	Active
NCCS	Active
